Assay results: patent US11939320B2, “Modulators of the integrated stress pathway” (Calico Life Sciences LLC, priority 2017, dated 2024)

Each compound was assayed on HEK293T cells carrying the ATF4 luciferase reporter (assay: ATF4-Luc assay (in vitro model of VWMD)). Details: Homo sapiens, HEK-293T; HEK293T cells with ATF4 5'-UTR firefly luciferase reporter; 1 μg/mL tunicamycin; 7 hours; One Glo luminescence.
Type: cell-based
Outline: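 Stable HEK293T line with human ATF4 5′-UTR–firefly luciferase reporter treated with 1 μg/mL tunicamycin plus 200 nM compound for 7 h. Luminescence read; EC50 derived.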

| Structure (SMILES) | EC50 [nM] |
| --- | --- |
| O=C(COc1ccc(Cl)c(Cl)c1)N[C@H]1CC[C@H](C(=O)NCc2ccc(C(F)F)cn2)CC1 [Compound 184, (1r,4r)-4-[2-(3,4-dichlorophenoxy)acetamido]-N-{[5-(difluoromethyl)pyridin-2-yl]methyl}cyclohexane-1-carboxamide] | 10 to 50 |
| O=C(COc1ccc(Cl)c(F)c1)N[C@@H]1CC[C@@H](C(=O)NCc2ccc(Cl)c(F)c2)OC1 [Compound 185, (2S,5R)-5-[2-(4-chloro-3-fluorophenoxy)acetamido]-N-[(4-chloro-3-fluorophenyl)methyl]oxane-2-carboxamide] | 10 to 50 |
| O=C(COc1ccc(Cl)c(F)c1)N[C@@H]1CC[C@@H](C(=O)NCc2ccc(C(F)(F)F)cn2)OC1 [Compound 186, (2S,5R)-5-[2-(4-chloro-3-fluorophenoxy)acetamido]-N-{[5-(trifluoromethyl)pyridin-2-yl]methyl}oxane-2-carboxamide] | 10 to 50 |
| O=C(COc1ccc(Cl)c(F)c1)N[C@H]1CC[C@H](C(=O)NCc2ccc(C(F)F)cn2)CC1 [Compound 187, (1r,4r)-4-[2-(4-chloro-3-fluorophenoxy)acetamido]-N-{[5-(difluoromethyl)pyridin-2-yl]methyl}cyclohexane-1-carboxamide] | 10 to 50 |
